# Reference: US20230312580A1, “1-(5-(2-CYANOPYRIDIN-4-YL)OXAZOLE-2-CARBONYL)-4-METHYLHEXAHYDROPYRROLO[3,4-B]PYR ROLE-5(1H)-CARBONITRILE AS USP30 INHIBITOR FOR USE IN THE TREATMENT OF MITOCHONDRIAL DYSFUNCTION, CANCER AND FIBROSIS” (MISSION THERAPEUTICS LIMITED, priority 2020, published 2023)
# Key:
# [1] = molecular target: UCHL1 (Homo sapiens (Human), UniProt P09936); assay: UCHL1 DUB IC50; assay type: biochemical
# [2] = tested on: USP2, USP6, USP10, USP16, USP21, USP25, USP28; assay: DUB IC50 selectivity panel (seven DUBs); assay type: biochemical; settings: range over the seven DUBs
# [3] = Hepatocyte Cl mouse; assay type: in vitro ADME; settings: mouse hepatocytes
# Method: Hep Cl mouse: in vitro hepatocyte clearance in mouse cells.
# (§1) Clu: in vitro clearance. Clu as defined here is the scaled clearance, in turn calculated from the intrinsic clearance. The intrinsic clearance is the predicted clearance due to hepatic metabolic reactions, determined from incubation of a compound in a hepatocyte preparation.
# [4] = molecular target: USP30 (Homo sapiens (Human), UniProt Q70CQ3); assay: USP30 biochemical IC50 assay (fluorescence polarisation); settings: biochemical FP assay, 30 min enzyme/compound incubation
# Chain of USP30 (Q70CQ3 57-517): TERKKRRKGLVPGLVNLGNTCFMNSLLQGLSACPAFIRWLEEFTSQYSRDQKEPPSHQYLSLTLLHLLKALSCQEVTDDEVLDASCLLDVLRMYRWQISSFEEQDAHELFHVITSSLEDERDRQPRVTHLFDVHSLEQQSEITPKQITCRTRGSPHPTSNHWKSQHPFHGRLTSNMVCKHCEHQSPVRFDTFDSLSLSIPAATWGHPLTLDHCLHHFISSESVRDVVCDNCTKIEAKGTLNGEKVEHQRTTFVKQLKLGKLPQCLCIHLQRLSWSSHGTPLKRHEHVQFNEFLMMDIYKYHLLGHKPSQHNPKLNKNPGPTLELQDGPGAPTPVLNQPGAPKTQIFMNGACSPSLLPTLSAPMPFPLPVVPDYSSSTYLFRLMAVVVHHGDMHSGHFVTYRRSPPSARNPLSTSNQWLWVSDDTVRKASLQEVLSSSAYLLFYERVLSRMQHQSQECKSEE
# Method: Compounds of the invention may be tested for USP30 affinity using the in vitro biochemical fluorescence polarization (FP) assay described herein.
# Dilution plates were prepared at 21 times the final concentration (2100 µM for a final concentration of 100 µM) in 50% DMSO in a 96-well polypropylene V-bottom plate (Greiner #651201). A typical 8-point dilution series would be 100, 30, 10, 3, 1, 0.3, 0.1, 0.03 µM final. Reactions were performed in duplicate in black 384 well plates (small volume, Greiner 784076) in a final reaction volume of 21 µl. Either 1 µl of 50% DMSO or diluted compound was added to the plate. USP30 (Boston Biochem #E582) was diluted in reaction buffer (40 mM Tris, pH 7.5, 0.005% Tween 20, 0.5 mg/ml BSA, 5 mM beta-mercaptoethanol) to achieve a final assay concentration of 4 nM, and 10 µl of diluted USP30 was added to the compound. Enzyme and compound were incubated for 30 min at room temp. Reactions were initiated by the addition of 50 nM of TAMRA labelled peptide linked to ubiquitin via an iso-peptide bond as fluorescence polarisation substrate. Reactions were read immediately after addition of substrate and following a 2-hour incubation at room temperature. Readings were performed on a Pherastar Plus (BMG Labtech). λ Excitation 540 nm; λ Emission 590 nm.
# [5] = molecular target: Cathepsin B (Homo sapiens (Human), UniProt P07858); assay: Cathepsin B IC50; assay type: biochemical
# [6] = molecular target: Cathepsin L (Homo sapiens (Human), UniProt P07711); assay: Cathepsin L IC50; assay type: biochemical
# Chain of Cathepsin L (P07711 114-333, species assumed): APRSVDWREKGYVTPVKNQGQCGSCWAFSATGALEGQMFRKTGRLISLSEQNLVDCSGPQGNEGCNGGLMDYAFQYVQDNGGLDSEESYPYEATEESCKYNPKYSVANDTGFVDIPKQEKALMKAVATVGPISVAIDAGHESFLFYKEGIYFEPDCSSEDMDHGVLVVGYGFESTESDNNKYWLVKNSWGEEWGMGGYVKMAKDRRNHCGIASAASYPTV
# [7] = Mouse plasma stability; assay type: in vitro ADME; settings: for half-life: read-out: Stability Mouse plasma t½
# Source text: Other parameters that may be measured using standard assays that are indicative of a compound’s exposure profile include, for example plasma stability (half-life measurement), blood AUC, Cmax, Cmin and Tmax values.
# [8] = molecular target: Cathepsin V (Homo sapiens (Human), UniProt O60911); assay: Cathepsin V IC50; assay type: biochemical
# Chain of Cathepsin V (O60911 114-334, species assumed): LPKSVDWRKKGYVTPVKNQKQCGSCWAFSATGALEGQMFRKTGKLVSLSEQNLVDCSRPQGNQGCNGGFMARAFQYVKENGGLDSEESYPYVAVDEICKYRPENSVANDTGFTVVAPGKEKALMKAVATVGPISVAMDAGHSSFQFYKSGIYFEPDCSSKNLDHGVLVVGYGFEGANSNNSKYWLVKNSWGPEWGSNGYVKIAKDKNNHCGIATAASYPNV
# [9] = FaSSIF solubility; assay type: physicochemical; settings: pH 6.5, fasted state simulated intestinal fluid
# Source text: FaSSIF: simulated intestinal fluid in fasted state measured at pH 6.5.
# [10] = PK mouse (IV and oral); assay type: in vivo; settings: plasma
# Source text: Cl in vivo clearance: Pharmacokinetic measurement of the volume of plasma (or any matrix) from which a substance is completely removed per unit time.
# [11] = Plasma binding mouse (equilibrium dialysis); assay type: in vitro ADME; settings: read-out: Binding Mouse Plasma fu,p
# Source text: (§2) Plasma fu,p: The free fraction of a compound in plasma preparation determined by in vitro equilibrium dialysis. It is understood that only unbound (free) compound is capable of engaging with the target. Brain fu,br: The free fraction of a compound in brain homogenate preparation determined by in vitro equilibrium dialysis. It is understood that only unbound (free) compound is capable of engaging with the target.
# [12] = tested on: Eurofins CEREP SafetyScreen44 panel; assay: Eurofins CEREP SafetyScreen44 panel profiling; assay type: binding; settings: single concentration of 10 µM
# Source text: Aside from selectivity over other DUB enzymes, it is important for a drug to have low affinity for other targets, and pharmacological profiling may be performed against panels of targets to assess the potential for, and to minimise, potential off-target effects. Examples of targets for which the compounds of the present invention may be screened against are those of the industry standard Eurofins-Cerep SafetyScreen44 panel, which includes 44 targets as a representative selection of GPCR receptors, transporters, ion channels, nuclear receptors, and kinase and non-kinase enzymes. Preferably, compounds of the invention have insignificant affinity against targets of this screening panel. Further examples of targets for which the compounds of the present invention may be screened against are kinases of the Thermo Fisher SelectScreen kinase profiling panel, which includes 39 targets as a representative selection of kinase enzymes. Preferably, compounds of the invention have insignificant affinity against targets of this screening panel. Additionally, examples of a particular enzyme class for which the compounds of the present invention may be screened against are the cathepsins (e.g. cathepsin A, B, C, H, K, L, L2, S, V and Z). Preferably, compounds of the invention have good selectivity for USP30 over one or more of these enzymes.
# [13] = Turbidimetric solubility; assay type: physicochemical; settings: aqueous buffer, kinetic from dmso stock
# Source text: The solubility of a compound is an important factor in achieving a desired concentration of drug in systemic circulation for the anticipated pharmacological response. Low aqueous solubility is a problem encountered with formulation development of new chemical entities and to be absorbed a drug must be present in the form of solution at the site of absorption. The kinetic solubility of a compound may be measured using a turbidimetric solubility assay, the data from which may also be used in conjunction with Caco-2 permeability data to predict dose dependent human intestinal absorption.
# Turbidimetric solubility: Test compound solution prepared in DMSO diluted into aqueous buffer. Turbidimetry is used as the end-point by measuring absorbance at 620 nm.
# [14] = Dog PK (CSF); assay type: in vivo
# Source text: (§3) Kpuu is the ratio of unbound drug in brain to unbound drug in plasma and may be indicative of potential for treating peripheral and/or CNS indications.
# [15] = Mouse PK microdialysis; assay type: in vivo
# Source text: as §3
# [16] = Hepatocyte Cl human; assay type: in vitro ADME; settings: human hepatocytes
# Method: Hep Cl human: in vitro hepatocyte clearance in human cells.
# as §1
# [17] = tested on: Salmonella typhimurium strains TA98, TA100, TA1535 and TA97a and the Escherichia Coli strain WP2 uvrA pKM101; assay: Bacterial reverse mutation assay (Ames); settings: up to 5000 µg/plate with and without metabolic activation
# Method: The bacterial reverse mutation assay (Ames Test) may be used to evaluate the mutagenic properties of compounds of the invention, commonly by using the bacterial strain Salmonella typhimurium, which is mutant for the biosynthesis of the amino acid histidine.
# All in vitro tests were conducted with and without exogenous metabolic activation using concentrations up to those limited by cytotoxicity or insolubility.
# [18] = tested on: UUO injured kidneys; assay: Unilateral ureteral obstructive kidney disease model (UUO); assay type: in vivo, C57BL/6 mice; settings: 10 days
# Source text: UUO causes renal injury characterised by tubular cell injury, interstitial inflammation and fibrosis. It serves as a model of irreversible post-renal acute kidney injury (AKI). Experimental UUO has illustrated the molecular mechanisms of apoptosis, inflammation and fibrosis, all of which are key processes in renal injury, regardless of the primary insult. Consequently, the UUO model provides investigators information beyond obstruction (Chevalier et al, 2009, Kidney Int 75(11): 1145-1152). Example 1 was assessed in the UUO model to determine the ability of the compound to attenuate progressive tubulointerstitial fibrosis and chronic kidney disease (CKD). […] Two hours post dosing on day 1 study mice underwent surgery to ligate the left ureter at two points. Successful UUO surgery was later confirmed by observation of dilation of renal pelvis due to hydronephrosis. The animals were dosed according to their prescribed regimen for 10 days at which point kidneys were harvested, or histopathology assessment and for protein/RNA assessment. Picrosirius Red staining was performed to assess the extent of collagen deposition and IHC was employed to assess relative α-Smooth Muscle Actin (α-SMA) expression.
# [19] = tested on: HCT116 human colorectal carcinoma cells; assay: In vitro cytotoxicity (Cell Tox), alamarBlue; assay type: cell-based; settings: HCT-116, 96-hour continual compound exposure
# Source text: There is also a need for compounds that have a favourable safety profile, which may be measured by a variety of standard in vitro and in vivo methods. A cell toxicity counter-screen may be used to assay the anti-proliferative/cytotoxic effect in a particular cell line (e.g. HCT116) by fluorometric detection of rezasurin (alamarBlue™) to resofurin in response to mitochondrial activity.
# In Vitro Cytotoxicity (Cell Tox): Measured in HCT116 human colorectal carcinoma cells using alamarBlue™ as the assay endpoint. Compound cytotoxicity was measured over a period of 96-hour continual compound exposure.
# [20] = tested on: TK6 cells; assay: In vitro micronucleus assay; assay type: cell-based; settings: 27 hours recovery
# Method: The micronucleus assay may be used to determine if a compound is genotoxic by evaluating the presence of micronuclei. Micronuclei may contain chromosome fragments produced from DNA breakage (clastogens) or whole chromosomes produced by disruption of the mitotic apparatus (aneugens).
# Induction of chromosome damage was assessed using the in vitro micronucleus assay in TK6 cells.
# [21] = Brain homogenate binding mouse (equilibrium dialysis); assay type: in vitro ADME; settings: read-out: Binding Mouse Brain fu,br
# Source text: as §2
# [22] = Rat PK microdialysis; assay type: in vivo; settings: microdialysis 30 mg/kg po
# Source text: as §3
# [23] = tested on: cathepsins (B, K, L, S and V); assay: Cathepsin IC50 panel, summary over B, K, L, S, V; assay type: biochemical; settings: range over the five cathepsins
# [24] = Log D lipophilicity measurement; assay type: physicochemical; settings: pH 7.4; read-out: Log D measured at pH 7.4
# Source text: log D: distribution co-efficient; lipophilicity measurement.
# [25] = WT-MDCK in vitro flux; assay type: in vitro ADME; settings: dog
# [26] = molecular target: hERG potassium channel (Homo sapiens (Human), UniProt Q12809); assay: hERG potassium channel current in stably expressed CHO cells; assay type: cell-based; settings: at 30 µM, 0.01 to 30 µM tested
# Chain of hERG potassium channel (Q12809 whole entry): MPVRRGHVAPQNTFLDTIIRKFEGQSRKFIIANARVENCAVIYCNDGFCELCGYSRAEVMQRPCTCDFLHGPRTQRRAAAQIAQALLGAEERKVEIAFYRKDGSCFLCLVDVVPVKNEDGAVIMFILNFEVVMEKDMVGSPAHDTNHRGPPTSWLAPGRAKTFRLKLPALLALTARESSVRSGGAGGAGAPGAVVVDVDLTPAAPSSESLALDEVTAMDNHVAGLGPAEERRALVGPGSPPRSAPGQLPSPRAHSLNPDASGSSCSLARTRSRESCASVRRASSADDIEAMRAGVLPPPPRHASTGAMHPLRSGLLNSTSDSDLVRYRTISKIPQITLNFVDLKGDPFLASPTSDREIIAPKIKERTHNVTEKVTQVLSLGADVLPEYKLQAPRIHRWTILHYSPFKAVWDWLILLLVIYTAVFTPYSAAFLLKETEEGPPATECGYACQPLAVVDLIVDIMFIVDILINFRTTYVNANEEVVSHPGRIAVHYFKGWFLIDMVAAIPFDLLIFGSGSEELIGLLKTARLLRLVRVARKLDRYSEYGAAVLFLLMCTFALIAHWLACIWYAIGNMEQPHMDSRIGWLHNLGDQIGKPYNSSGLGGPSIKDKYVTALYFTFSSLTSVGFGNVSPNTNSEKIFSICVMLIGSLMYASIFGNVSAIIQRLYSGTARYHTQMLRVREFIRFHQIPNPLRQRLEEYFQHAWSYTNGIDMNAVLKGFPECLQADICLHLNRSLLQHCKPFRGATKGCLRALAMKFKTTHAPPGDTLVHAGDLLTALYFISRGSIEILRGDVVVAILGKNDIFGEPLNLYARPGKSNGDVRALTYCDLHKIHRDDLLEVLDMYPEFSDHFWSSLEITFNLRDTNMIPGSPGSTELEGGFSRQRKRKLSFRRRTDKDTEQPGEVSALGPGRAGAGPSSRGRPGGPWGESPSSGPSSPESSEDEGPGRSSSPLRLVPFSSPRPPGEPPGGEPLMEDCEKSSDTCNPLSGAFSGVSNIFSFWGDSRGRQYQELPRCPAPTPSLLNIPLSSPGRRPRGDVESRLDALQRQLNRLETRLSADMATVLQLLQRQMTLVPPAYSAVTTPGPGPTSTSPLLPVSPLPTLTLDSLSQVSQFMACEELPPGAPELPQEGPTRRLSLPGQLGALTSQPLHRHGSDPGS
# Source text: The hERG predictor assay provides valuable information about the possible binding of test compounds to the potassium channel and potential QT prolongation on […]. Inhibition of the hERG current causes QT interval prolongation resulting in potentially fatal ventricular tachyarrhythmia (Torsades de Pointes). Typically, assay data may be generated from an automated patch-clamp assay platform.
# Chain of UCHL1 (P09936 whole entry, species assumed): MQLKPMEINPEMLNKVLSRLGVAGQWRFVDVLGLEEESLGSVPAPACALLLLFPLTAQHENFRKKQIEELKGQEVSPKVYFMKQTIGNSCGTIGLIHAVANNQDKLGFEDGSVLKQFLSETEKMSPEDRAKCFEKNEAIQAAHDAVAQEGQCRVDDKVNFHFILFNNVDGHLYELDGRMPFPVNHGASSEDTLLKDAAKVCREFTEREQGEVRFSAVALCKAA
structure (smiles),measurement,setting,value
CC1CC(C(=O)Nc2ncc(-c3ccccc3)s2)CN1C#N (stereo not shown) [Reference Example E],fold more potent against USP30 than UCHL1,[1],1.5 fold
N#CN1CC[C@H](C(=O)Nc2ncc(-c3ccccc3)s2)C1 [D],fold more potent against USP30 than UCHL1,[1],0.8 fold
Cc1cc(-c2cccc(C(=O)N3CC[C@@H]4CN(C#N)C[C@@H]43)c2)ccn1 [Reference Example C],IC50,[2],4 to 92.4 µM
same,Hepatocyte Cl mouse scaled Clu,[3],108 mL/min/kg
same,IC50,[4],0.072 µM
same,IC50,[5],1.2 µM
same,IC50,[6],1.3 µM
same,half-life,[7],16 min
same,IC50,[8],18.5 µM
COc1ccc(-c2cc(C(=O)N3CC[C@@H]4CN(C#N)C[C@@H]43)on2)cc1 [B],IC50,[2],0.54 to 38.8 µM
same,Hepatocyte Cl mouse scaled Clu,[3],> 121 mL/min/kg
same,IC50,[4],0.07 µM
same,IC50,[5],1.4 µM
same,IC50,[6],1.8 µM
same,half-life,[7],21 min
same,IC50,[8],2.3 µM
"C[C@@H]1[C@H]2CCN(C(=O)c3ncc(-c4ccnc(C#N)c4)o3)[C@H]2CN1C#N (single isomer, unassigned) [Example 1]",FaSSIF (µM) measured at pH 6.5,[9],488 µM
same,bioavailability,"[10]; po, mouse 10 mg/kg, read-out: Oral F (%)",87%
same,clearance,"[10]; mouse 2 mg/kg IV, read-out: Cl plasma",19 mL/min/kg
same,fraction unbound,[11],0.14
same,inhibition of binding or enzyme activity against all targets in the panel,[12],less than 50%
same,solubility,[13],65 µM
same,Dog Kpuu (CSF/plasmau),[14]; 30 mg/kg po,0.41
same,partition to the cerebro-spinal fluid (CSF),"[14]; dogs, 30 mg/kg orally",high partition
same,CNS distribution in vivo by microdialysis sampling of brain regions,[15]; 30 mg/kg oral dose in mice and rats,high CNS distribution
same,Mouse Kpuu (PFCu/plasmau),[15]; microdialysis 30 mg/kg po,0.90
same,Mouse PFCu/cell TOM20-Ub,[15]; microdialysis 30 mg/kg po,125-fold
same,Hepatocyte Cl human scaled Clu,[16],18 mL/min/kg
same,IC50,[2],24.9 to 107 µM
same,IC50,[1],> 300 µM
same,Hepatocyte Cl mouse scaled Clu,[3],40 mL/min/kg
same,induction of mutations in reverse mutation assay,[17],did not induce mutations
same,α-SMA levels in UUO injured kidneys vs vehicle,[18]; 1.5 mg/kg oral BID,statistical reduction in α-SMA levels
same,collagen deposition (picrosirius red staining) in ligated kidneys,[18]; 1.5 mg/kg p.o. BID,statistically reduced collagen deposition
same,collagen deposition (picrosirius red staining) in ligated kidneys,[18]; 5 mg/kg p.o. BID,statistically reduced collagen deposition
same,EC50,[19],> 30 µM
same,IC50,[5],205 µM
same,induction of micronuclei,[20]; 3 hours in the presence of exogenous metabolic activation,negative
same,induction of micronuclei,[20]; 27 hours in the absence of exogenous metabolic activation,negative
same,fraction unbound,[21],0.3
same,Rat Kpuu (PFCu/plasmau),[22],0.43
same,IC50,[6],42.1 µM
same,IC50,[23],≥ 42.1 µM
same,"improved plasma stability compared to Reference Examples A, B and C",[7],2 to 8 fold
same,half-life,[7],> 120 min
same,logD,[24],1.4
same,IC50,[8],247 µM
same,Papp A→B,[25],16 ×10⁻⁶ cm/s
same,maximum inhibition of the hERG current amplitude,[26],27%
